# Reference: patent publication US20230279020A9, “CARM1 INHIBITORS AND USES THEREOF” (Epizyme, Inc., priority 2013, published 2023)
# Target: Human CARM1 (PRMT4) (Homo sapiens (Human), UniProt Q86X55)
# Test: CARM1 enzyme assay on peptide substrate (3H-SAM Flashplate)
# Details: Biochemical potencies, classification codes; read-out: Biochem IC50
# Human CARM1 (PRMT4), sequence (Q86X55 other isoform, or with tags, fused parts or gaps isoform Q86X55-1): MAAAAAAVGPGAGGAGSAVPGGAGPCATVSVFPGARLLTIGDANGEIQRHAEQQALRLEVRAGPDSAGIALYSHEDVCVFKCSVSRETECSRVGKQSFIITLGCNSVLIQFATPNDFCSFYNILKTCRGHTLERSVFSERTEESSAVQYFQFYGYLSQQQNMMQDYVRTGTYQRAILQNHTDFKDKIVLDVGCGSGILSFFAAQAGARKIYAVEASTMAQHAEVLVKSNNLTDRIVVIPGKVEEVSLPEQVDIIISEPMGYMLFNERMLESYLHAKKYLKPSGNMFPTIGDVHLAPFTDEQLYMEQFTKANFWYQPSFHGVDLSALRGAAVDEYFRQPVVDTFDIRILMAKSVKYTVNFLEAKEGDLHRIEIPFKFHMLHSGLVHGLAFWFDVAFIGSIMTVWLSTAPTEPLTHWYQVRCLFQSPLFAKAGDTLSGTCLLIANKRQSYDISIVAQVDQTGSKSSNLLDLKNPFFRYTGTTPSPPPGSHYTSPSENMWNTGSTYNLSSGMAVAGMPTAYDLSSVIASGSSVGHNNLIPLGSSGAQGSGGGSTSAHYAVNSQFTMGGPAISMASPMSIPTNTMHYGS
row,Compound,IC50
1,CNC[C@@H](O)COc1ccc(C(F)(F)F)c(-c2nc(NC3CCOCC3)c(C)c(-c3c(C)noc3C)n2)c1 [Example 200-3],< 100 nM
2,CNCC(O)COc1cccc(-c2nc(NC3CCCN(C(=O)OC)C3)c(C)c(-c3c(C)noc3C)n2)c1 (stereo not drawn) [Example 201-1a],< 100 nM
3,CNC[C@@H](O)COc1ccc(Cl)c(-c2nc(N[C@H]3CO[C@H](C)C3)c(Cl)c(-c3c(C)noc3C)n2)c1 [Example 201-3],< 100 nM
4,CNCC(O)COc1cccc(-c2nc(NC3CCN(C(=O)OC)CC3)c(Cl)c(-c3c(C)noc3C)n2)c1 (stereo not drawn) [Example 202-1a],< 100 nM
5,CNC[C@@H](O)COc1ccc(Cl)c(-c2nc(N[C@H]3CN(C(=O)OC)C[C@@H]3F)c(C)c(-c3c(C)noc3C)n2)c1 [Example 202-3],< 100 nM
6,CNCC(O)COc1cccc(-c2nc(NC3CCCN(CC(F)F)C3)c(C)c(-c3c(C)noc3C)n2)c1 (stereo not drawn) [Example 203-1a],< 100 nM
7,CNC[C@@H](O)COc1ccc(Cl)c(-c2nc(N[C@H]3CN(C4CC4)C[C@@H]3F)c(C)c(-c3c(C)noc3C)n2)c1 [Example 203-3],< 100 nM
8,CCS(=O)(=O)N1CCCC(Nc2nc(-c3cccc(OCC(O)CNC)c3)nc(-c3c(C)noc3C)c2C)C1 (stereo not drawn) [Example 204-1a],< 100 nM
9,CNC[C@@H](O)COc1ccc(C(F)(F)F)c(-c2nc(NC3CCN(C(=O)OC)CC3)c(C)c(-c3c(C)noc3C)n2)c1 [Example 204-3],< 100 nM
10,CNCC(O)COc1cccc(-c2nc(NCC3CCN(CC(F)F)CC3)c(C)c(-c3c(C)noc3C)n2)c1 (stereo not drawn) [Example 205-1a],< 100 nM
11,CNC[C@@H](O)COc1ccc(Cl)c(-c2nc(-c3c(C)noc3C)c(C)c(C3CC3)n2)c1 [Example 205-3],< 100 nM
12,CCOC(=O)N1CCOC[C@@H]1CNc1nc(-c2cccc(OCC(O)CNC)c2)nc(-c2c(C)noc2C)c1C (stereo partly drawn) [Example 206-1a],< 100 nM
13,CNC[C@@H](O)COc1ccc(Cl)c(-c2nc(-c3c(C)noc3C)c(C)c(N3CC(F)C3)n2)c1 [Example 206-3],< 100 nM
14,CNCC(O)COc1cccc(-c2nc(NC3CCNC[C@H]3F)c(C)c(-c3c(C)noc3C)n2)c1 (stereo partly drawn) [Example 207-1a],< 100 nM
15,CNC[C@@H](O)COc1ccc(Cl)c(-c2nc(-c3c(C)noc3C)c(C)c(N3CCC3C)n2)c1 (stereo partly drawn) [Example 207-3],< 100 nM
16,CNCC(O)COc1cccc(-c2nc(NC3CCN(C(=O)OC(C)(C)C)C[C@H]3F)c(C)c(-c3c(C)noc3C)n2)c1 (stereo partly drawn) [Example 208-1a],< 100 nM
17,CNC[C@@H](O)COc1ccc(Cl)c(-c2nc(N[C@H]3CCN(C)C[C@H]3F)c(Cl)c(-c3c(C)noc3C)n2)c1 [Example 208-3],< 100 nM
18,CNCC(O)COc1cccc(-c2nc(-c3c(C)noc3C)c(C)c(N3CCO[C@@H](C)C3)n2)c1 (stereo partly drawn) [Example 209-1a],< 100 nM
19,CNC[C@@H](O)COc1ccc(Cl)c(-c2nc(N[C@H]3COC[C@@H]3O)c(C)c(-c3c(C)noc3C)n2)c1 [Example 209-3],< 100 nM
20,CNCC(O)COc1cccc(-c2nc(Nc3cn(C)cn3)c(C)c(-c3c(C)noc3C)n2)c1 (stereo not drawn) [Example 210-1a],< 100 nM
21,CNC[C@@H](O)COc1ccc(Cl)c(-c2nc(N[C@@H]3CCN(C)C[C@@H]3F)c(Cl)c(-c3c(C)noc3C)n2)c1 [Example 210-3],< 100 nM
22,CNCC(O)COc1cccc(-c2nc(-c3c(C)noc3C)c(C)c(N3CCO[C@H](C)C3)n2)c1 (stereo partly drawn) [Example 211-1a],< 100 nM

row,Compound,IC50
1,CNC[C@@H](O)COc1ccc(Cl)c(-c2nc(N[C@@H]3CCN(C4CC4)C[C@@H]3F)c(Cl)c(-c3c(C)noc3C)n2)c1 [Example 211-3],< 100 nM
2,CNCC(O)COc1cccc(-c2nc(NC3C4COCC43)c(C)c(-c3c(C)noc3C)n2)c1 (stereo not drawn) [Example 212-1a],< 100 nM
3,CNC[C@@H](O)COc1ccc(Cl)c(-c2nc(N[C@H]3CC[C@@H](OC)C3)c(C)c(-c3c(C)noc3C)n2)c1 [Example 212-3],< 100 nM
4,CNC[C@@H](O)COc1ccc(Cl)c(-c2nc(-c3c(C)noc3C)c(C)c(N(C)[C@H]3CC[C@@H](OC)C3)n2)c1 [Example 213-3],< 100 nM
5,CNC[C@@H](O)COc1ccc(Cl)c(-c2nc(-c3c(C)noc3C)c(Cl)c(N3Cc4ccncc4C3)n2)c1 [Example 214-3],< 100 nM
6,CNCC(O)COc1cccc(-c2nc(Nc3nncs3)c(C)c(-c3c(C)noc3C)n2)c1 (stereo not drawn) [Example 215-1a],< 100 nM
7,CNC[C@@H](O)COc1ccc(Cl)c(-c2nc(NC[C@H]3CCCO3)c(Cl)c(-c3c(C)noc3C)n2)c1 [Example 215-3],< 100 nM
8,CNCC(O)COc1cccc(-c2nc(NC3CCCN(C(=O)N(C)C)C3)c(C)c(-c3c(C)noc3C)n2)c1 (stereo not drawn) [Example 216-1a],< 100 nM
9,CNC[C@@H](O)COc1ccc(Cl)c(-c2nc(N[C@H]3C[C@@H](OC)C3)c(Cl)c(-c3c(C)noc3C)n2)c1 [Example 216-3],< 100 nM
10,CNCC(O)COc1cccc(-c2nc(Nc3nnc(C4CC4)s3)c(C)c(-c3c(C)noc3C)n2)c1 (stereo not drawn) [Example 217-1a],< 100 nM
11,CNC[C@@H](O)COc1ccc(Cl)c(-c2nc(N[C@H]3C[C@H](OC)C3)c(Cl)c(-c3c(C)noc3C)n2)c1 [Example 217-3],< 100 nM
12,CNCC(O)COc1cccc(-c2nc(N[C@H]3CCC[C@H]3O)c(C)c(-c3c(C)noc3C)n2)c1 (stereo partly drawn) [Example 218-1a],< 100 nM
13,CNCC(O)COc1ccc(Cl)c(-c2nc(NC3CC4(CC4)C3)c(C)c(-c3c(C)noc3C)n2)c1 (stereo not drawn) [Example 218-3],< 100 nM
14,CNCC(O)COc1cccc(-c2nc(NC3CCC[C@H]3O)c(C)c(-c3c(C)noc3C)n2)c1 (stereo partly drawn) [Example 219-1a],< 100 nM
15,CNC[C@@H](O)COc1ccc(Cl)c(-c2nc(NC3CC(COC)C3)c(C)c(-c3c(C)noc3C)n2)c1 (stereo partly drawn) [Example 219-3],< 100 nM
16,CNCC(O)COc1cccc(-c2nc(N[C@@H]3CCOC[C@@H]3OC)c(C)c(-c3c(C)noc3C)n2)c1 (stereo partly drawn) [Example 220-1a],< 100 nM
17,CNC[C@@H](O)COc1ccc(Cl)c(-c2nc(-c3c(C)noc3C)c(C)c(N(C)C3CC(COC)C3)n2)c1 (stereo partly drawn) [Example 220-3],< 100 nM
18,CNCC(O)COc1cccc(-c2nc(N[C@H]3C[C@H](C(=O)OC)C3)c(C)c(-c3c(C)noc3C)n2)c1 (stereo partly drawn) [Example 221-1a],< 100 nM
19,CCOC(=O)N1CCC[C@H]1CCOc1nc(-c2cc(OC[C@H](O)CNC)ccc2Cl)nc(-c2c(C)noc2C)c1C [Example 221-3],< 100 nM
20,CCO[C@H]1CCC[C@@H]1Nc1nc(-c2cc(OC[C@H](O)CNC)ccc2Cl)nc(-c2c(C)noc2C)c1C [Example 222-3],< 100 nM
21,CNC[C@@H](O)COc1ccc(F)c(-c2nc(-c3c(C)noc3C)c(C)c(N3Cc4cnn(C)c4C3)n2)c1 [Example 223-3],< 100 nM
22,CNCC(O)COc1cccc(-c2nc(N[C@@H]3CCNC[C@@H]3F)c(C)c(-c3c(C)noc3C)n2)c1 (stereo partly drawn) [Example 224-1a],< 100 nM

row,Compound,IC50
1,CNC[C@@H](O)COc1ccc(Cl)c(-c2nc(-c3c(C)noc3C)c(C)c(N3Cc4[nH]nc(C)c4C3)n2)c1 [Example 224-3],< 100 nM
2,CNCC(O)COc1cccc(-c2nc(N[C@@H]3CCN(C(=O)OC)C[C@@H]3F)c(C)c(-c3c(C)noc3C)n2)c1 (stereo partly drawn) [Example 225-1a],< 100 nM
3,CNC[C@@H](O)COc1ccc(Cl)c(-c2nc(-c3c(C)noc3C)c(Cl)c(N3Cc4nccnc4C3)n2)c1 [Example 225-3],< 100 nM
4,CCOC(=O)N1CC[C@@H](Nc2nc(-c3cccc(OCC(O)CNC)c3)nc(-c3c(C)noc3C)c2C)[C@@H](F)C1 (stereo partly drawn) [Example 226-1a],< 100 nM
5,CNC[C@@H](O)COc1ccc(F)c(-c2nc(-c3c(C)noc3C)c(C)c(N3Cc4nccnc4C3)n2)c1 [Example 226-3],< 100 nM
6,CNCC(O)COc1cccc(-c2nc(N[C@@H]3CCN(C(=O)OC(C)(C)C)C[C@@H]3F)c(C)c(-c3c(C)noc3C)n2)c1 (stereo partly drawn) [Example 227-1a],< 100 nM
7,CNC[C@@H](O)COc1ccc(F)c(-c2nc(-c3c(C)noc3C)c(C)c(N3CC4(CCOCC4)C3)n2)c1 [Example 227-3],< 100 nM
8,CNCC(O)COc1cccc(-c2nc(N[C@@H]3CCN(C(=O)OC)C[C@H]3F)c(C)c(-c3c(C)noc3C)n2)c1 (stereo partly drawn) [Example 228-1a],< 100 nM
9,CNC[C@@H](O)COc1ccc(Cl)c(-c2nc(NC[C@@H]3CCOC3)c(C)c(-c3c(C)noc3C)n2)c1 [Example 228-3],< 100 nM
10,CCOC(=O)N1CC[C@@H](Nc2nc(-c3cccc(OCC(O)CNC)c3)nc(-c3c(C)noc3C)c2C)[C@H](F)C1 (stereo partly drawn) [Example 229-1a],< 100 nM
11,CNC[C@@H](O)COc1ccc(Cl)c(-c2nc(-c3c(C)noc3C)c(Cl)c(N3CC4(CCOCC4)C3)n2)c1 [Example 229-3],< 100 nM
12,CCS(=O)(=O)N1CCOC[C@@H]1CNc1nc(-c2cccc(OCC(O)CNC)c2)nc(-c2c(C)noc2C)c1C (stereo partly drawn) [Example 230-1a],< 100 nM
13,CNC[C@@H](O)COc1ccc(Cl)c(-c2nc(NC3CC(C)C3)c(C)c(-c3c(C)noc3C)n2)c1 (stereo partly drawn) [Example 230-3],< 100 nM
14,CNCC(O)COc1cccc(-c2nc(N[C@H]3C[C@H](C(C)(C)O)C3)c(C)c(-c3c(C)noc3C)n2)c1 (stereo partly drawn) [Example 231-1a],< 100 nM
15,CNC[C@@H](O)COc1ccc(Cl)c(-c2nc(-c3c(C)noc3C)c(C)c(N3Cc4cn[nH]c4C3)n2)c1 [Example 231-3],< 100 nM
16,CNCC(O)COc1cccc(-c2nc(N[C@H]3C[C@@H](C(C)(C)O)C3)c(C)c(-c3c(C)noc3C)n2)c1 (stereo partly drawn) [Example 232-1a],< 100 nM
17,CNC[C@@H](O)COc1ccc(Cl)c(-c2nc(-c3c(C)noc3C)c(C)c(N3Cc4cc(OC)cnc4C3)n2)c1 [Example 232-3],< 100 nM
18,CNCC(O)COc1cccc(-c2nc(Nc3cc(C)on3)c(C)c(-c3c(C)noc3C)n2)c1 (stereo not drawn) [Example 233-1a],< 100 nM
19,CNC[C@@H](O)COc1ccc(Cl)c(-c2nc(NC[C@H]3CCOC3)c(C)c(-c3c(C)noc3C)n2)c1 [Example 233-3],< 100 nM
20,CNCC(O)COc1cccc(-c2nc(N[C@H]3CC[C@H](OC)C3)c(C)c(-c3c(C)noc3C)n2)c1 (stereo partly drawn) [Example 234-1a],< 100 nM
21,CNC[C@@H](O)COc1ccc(Cl)c(-c2nc(-c3c(C)noc3C)c(C)c(N3CCC4(CC4)C3)n2)c1 [Example 234-3],< 100 nM
22,CNCC(O)COc1cccc(-c2nc(-c3c(C)noc3C)c(C)c(N3CCN(Cc4ccccc4)C(C(F)F)C3)n2)c1 (stereo not drawn) [Example 235-1a],< 100 nM
